One assay deals with T1, human TLR7 (Homo sapiens, UniProt Q9NYK1).
T1 construct: host or cells: HEK293 NF-kB reporter cells
T1 sequence (Q9NYK1 27-1049): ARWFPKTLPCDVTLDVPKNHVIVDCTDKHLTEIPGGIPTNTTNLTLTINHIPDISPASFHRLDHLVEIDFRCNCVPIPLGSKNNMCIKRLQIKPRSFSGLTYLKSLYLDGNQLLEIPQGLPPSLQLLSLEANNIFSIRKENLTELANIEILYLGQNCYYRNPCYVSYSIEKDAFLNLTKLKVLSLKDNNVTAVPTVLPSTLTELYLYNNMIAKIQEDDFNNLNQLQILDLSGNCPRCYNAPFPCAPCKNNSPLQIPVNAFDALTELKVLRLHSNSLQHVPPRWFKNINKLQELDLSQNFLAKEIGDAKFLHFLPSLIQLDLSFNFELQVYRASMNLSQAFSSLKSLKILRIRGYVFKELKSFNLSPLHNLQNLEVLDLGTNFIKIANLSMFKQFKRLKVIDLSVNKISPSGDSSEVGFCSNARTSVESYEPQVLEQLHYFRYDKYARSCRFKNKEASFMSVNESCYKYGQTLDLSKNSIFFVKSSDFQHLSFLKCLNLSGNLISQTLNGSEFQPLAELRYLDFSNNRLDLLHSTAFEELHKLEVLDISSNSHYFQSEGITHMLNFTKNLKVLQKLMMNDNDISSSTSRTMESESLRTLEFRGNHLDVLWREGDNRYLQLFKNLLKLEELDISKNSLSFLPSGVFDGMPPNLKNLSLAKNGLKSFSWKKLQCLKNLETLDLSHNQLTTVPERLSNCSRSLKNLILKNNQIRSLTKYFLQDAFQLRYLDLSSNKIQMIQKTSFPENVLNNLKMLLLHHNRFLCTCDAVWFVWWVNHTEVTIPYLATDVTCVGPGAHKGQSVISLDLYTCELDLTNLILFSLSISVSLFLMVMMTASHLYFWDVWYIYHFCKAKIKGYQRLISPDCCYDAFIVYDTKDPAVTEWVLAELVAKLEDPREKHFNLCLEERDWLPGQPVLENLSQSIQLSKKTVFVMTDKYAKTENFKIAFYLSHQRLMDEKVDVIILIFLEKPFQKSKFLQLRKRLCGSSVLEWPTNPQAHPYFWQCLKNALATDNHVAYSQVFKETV
Put plainly: HEK reporter assay, HEK293 reporter cells expressing human TLR7. The class given is cell-based. The conditions noted are these: for EC50: HEK293 NFKB reporter cells expressing human TLR7, read-out: HEK293 hTLR7 EC50; for TLR7 activity after NHBoc modification of the dipropylamide, versus parent compound: Human HEK293 reporter cells, BZA-2 vs BZA-1, BZA-4 vs BZA-3 (FIG. 1B, 1D). The protocol:
Each compound was characterized by mass spectrometry and shown to have the mass indicated. Activity against HEK293 NFKB reporter cells expressing human TLR7 or human TLR8 was measured according to Example 30.
(§1) HEK293 reporter cells expressing human TLR7 or human TLR8 were purchased from Invivogen and vendor protocols were followed for cellular propagation and experimentation. Briefly, cells were grown to 80-85% confluence at 5% CO2 in DMEM supplemented with 10% FBS, Zeocin, and Blasticidin. Cells were then seeded in 96-well flat plates at 4×10^4 cells/well with substrate containing HEK detection medium and immunostimulatory molecules. Activity was measured using a plate reader at 620-655 nm wavelength.
In general terms: A reporter such as luciferase makes a cellular process visible.

A further assay has as its target T2, human TLR8 (Homo sapiens, UniProt Q9NR97).
T2 construct: host or cells: HEK293 NF-kB reporter cells
T2 sequence (Q9NR97 27-1041): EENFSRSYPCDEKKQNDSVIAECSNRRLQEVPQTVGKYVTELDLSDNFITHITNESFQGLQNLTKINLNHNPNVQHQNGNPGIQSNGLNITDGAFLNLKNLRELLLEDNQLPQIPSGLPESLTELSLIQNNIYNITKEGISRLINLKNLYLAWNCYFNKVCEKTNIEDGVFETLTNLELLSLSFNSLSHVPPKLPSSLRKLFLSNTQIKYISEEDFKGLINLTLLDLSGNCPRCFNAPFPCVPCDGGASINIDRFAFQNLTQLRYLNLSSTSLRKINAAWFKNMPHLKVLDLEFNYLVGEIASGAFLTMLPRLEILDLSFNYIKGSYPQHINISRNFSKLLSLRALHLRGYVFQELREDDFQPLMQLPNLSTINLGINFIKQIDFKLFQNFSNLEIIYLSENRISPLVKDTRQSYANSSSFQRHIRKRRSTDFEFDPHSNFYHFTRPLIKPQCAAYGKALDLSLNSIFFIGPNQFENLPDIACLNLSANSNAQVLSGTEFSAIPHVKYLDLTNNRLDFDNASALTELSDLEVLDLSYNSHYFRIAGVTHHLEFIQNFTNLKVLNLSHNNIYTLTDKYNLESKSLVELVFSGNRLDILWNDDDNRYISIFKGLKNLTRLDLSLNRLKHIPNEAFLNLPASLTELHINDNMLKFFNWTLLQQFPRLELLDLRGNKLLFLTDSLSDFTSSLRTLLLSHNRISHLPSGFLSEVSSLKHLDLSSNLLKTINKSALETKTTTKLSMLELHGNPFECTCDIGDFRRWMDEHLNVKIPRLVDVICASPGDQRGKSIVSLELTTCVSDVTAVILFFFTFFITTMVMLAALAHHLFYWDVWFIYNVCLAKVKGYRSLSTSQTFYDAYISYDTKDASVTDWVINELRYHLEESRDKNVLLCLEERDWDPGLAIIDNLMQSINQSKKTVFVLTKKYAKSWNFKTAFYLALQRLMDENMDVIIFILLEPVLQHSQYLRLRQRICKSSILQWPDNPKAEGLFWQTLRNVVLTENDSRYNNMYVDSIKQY
Put plainly: HEK reporter assay, HEK293 reporter cells expressing human TLR8. In kind it is cell-based. The following applies: for EC50: HEK293 NFKB reporter cells expressing human TLR8, read-out: HEK293 hTLR8 EC50; for TLR8 activity after NHBoc modification of the dipropylamide, versus parent compound: Human HEK293 reporter cells, BZA-2 vs BZA-1, BZA-4 vs BZA-3 (FIG. 1A, 1C). The method, then: Activity against HEK293 NFKB reporter cells expressing human TLR7 or human TLR8 was measured according to Example 30.
as §1

The results in this text go back to patent US20220347310A1, “AMIDE-LINKED, AMINOBENZAZEPINE IMMUNOCONJUGATES, AND USES THEREOF” (BOLT BIOTHERAPEUTICS, INC., priority 2019, published 2022).

Some results are limits rather than exact numbers.

The term EC50 denotes the concentration at which the effect is half-maximal.

As for `CCCN(CCCNC(=O)OC(C)(C)C)C(=O)C1=Cc2ccc(C(=O)Nc3cnc(NCCNC(=O)OC(C)(C)C)nc3)cc2N=C(N)C1` [8AmBza-7, tert-butyl N-[3-[[2-amino-8-[[2-[2-(tert-butoxycarbonylamino)ethylamino]pyrimidin-5-yl]carbamoyl]-3H-1-benzazepine-4-carbonyl]-propyl-amino]propyl]carbamate], the values for the concentration for a half-maximal effect (EC50) on human TLR7 and on human TLR8 were greater than 9 µM and 1.76 µM, respectively.

As to `CCCN(OCC)C(=O)C1=Cc2ccc(C(=O)Nc3ccccc3)cc2N=C(N)C1` [8AmBza-15], the EC50 is 4.86 µM on human TLR7 and 0.034 µM on human TLR8.

Regarding `CCCN(CCCNC(=O)OC(C)(C)C)C(=O)C1=Cc2ccc(C(=O)Nc3ccccc3)cc2N=C(N)C1` [8AmBza-9, tert-butyl (3-(2-amino-8-(phenylcarbamoyl)-N-propyl-3H-benzo [b]azepine-4-carboxamido)propyl)carbamate], the EC50 at human TLR7 was greater than 9 µM; at human TLR8 it was 0.127 µM.

Take `CCCN(CCCNC(=O)OC(C)(C)C)C(=O)C1=Cc2ccc(-c3cccc(S(=O)(=O)N4CC(CO)C4)c3)cc2N=C(N)C1` [BZA-2, tert-butyl (3-(2-amino-8-(3-((3-(hydroxymethyl)azetidin-1-yl)sulfonyl)phenyl)-N-propyl-3H-benzo[b]azepine-4-carboxamido)propyl)carbamate, reference compound]: at human TLR7, the “TLR7 activity after NHBoc modification of the dipropylamide, versus parent compound” value is listed as “significantly increasing TLR7 activity”. Moreover, the “TLR8 activity after NHBoc modification of the dipropylamide, versus parent compound” value at human TLR8 is recorded as “minimally perturbs TLR8 activity”.

In the case of `CCCN(CCC)C(=O)C1=Cc2ccc(C(=O)Nc3cnc4c(c3)CN(C(=O)OC(C)(C)C)CC4)cc2N=C(NC(=O)OC(C)(C)C)C1` [8AmBza-20], the EC50 was 8.13 µM at human TLR7 and 6.08 µM on human TLR8.

As to `CCCN(CCC)C(=O)C1=Cc2ccc(C(=O)Nc3cncc(CNC(=O)CN)c3)cc2N=C(N)C1` [8AmBza-21], the concentration giving a half-maximal response (EC50) on human TLR7 is greater than 9 µM.

As for `CCCN(Cc1ccc(CNC(=O)OC(C)(C)C)cc1)C(=O)C1=Cc2ccc(C(=O)Nc3ccccc3)cc2N=C(N)C1` [8AmBza-17], the concentration giving a half-maximal response (EC50) was greater than 9 µM at human TLR7 and 0.782 µM at human TLR8.

Consider `CCCN(Cc1ccc(CN)cc1)C(=O)C1=Cc2ccc(C(=O)Nc3ccccc3)cc2N=C(N)C1` [8AmBza-16], for which the EC50 is greater than 9 µM at human TLR7 and 0.077 µM on human TLR8.

As to `CCCN(CCC)C(=O)C1=Cc2ccc(C(=O)Nc3cncc(CNC(=O)CNC(=O)OC(C)(C)C)c3)cc2N=C(NC(=O)OC(C)(C)C)C1` [8AmBza-22], the EC50 on human TLR7 and at human TLR8 was greater than 9 µM throughout.

For `CCCN(CCCNC(=O)OC(C)(C)C)C(=O)C1=Cc2ccc(NC(=O)c3ccccc3)cc2N=C(N)C1` [BZA-4, tert-butyl (3-(2-amino-8-benzamido-N-propyl-3H-benzo[b]azepine-4-carboxamido)propyl)carbamate, reference compound], at human TLR7, the “TLR7 activity after NHBoc modification of the dipropylamide, versus parent compound” value is on record as “increases TLR 7 activity”. The “TLR8 activity after NHBoc modification of the dipropylamide, versus parent compound” value on human TLR8 was “does not affect TLR 8 activity”.

On to `CCCN(CCC)C(=O)C1=Cc2ccc(C(=O)Nc3cnc4c(c3)CNCC4)cc2N=C(N)C1` [8AmBza-19], for which the EC50 on human TLR8 was 2.18 µM.

Consider `CCCN(OCC)C(=O)C1=Cc2ccc(C(=O)Nc3ccc(N4CCC(C(=O)NCCN)CC4)nc3)cc2N=C(N)C1` [8AmBza-18, 2-amino-N8-[6-[4-(2-aminoethylcarbamoyl)-1-piperidyl]-3-pyridyl]-N4-ethoxy-N4-propyl-3H-1-benzazepine-4,8-dicarboxamide], for which the 50% effective concentration (EC50) on human TLR7 was greater than 9 µM; on human TLR8 it was 5.62 µM.

Consider `CCCN(CCCNC(=O)OC(C)(C)C)C(=O)C1=Cc2ccc(C(=O)Nc3cccc(COCCOCCNC(=O)OC(C)(C)C)c3)cc2N=C(N)C1` [8AmBza-8, tert-butyl N-[3-[[2-amino-8-[[3-[2-[2-(tert-butoxycarbonylamino)ethoxy]ethoxymethyl]phenyl]carbamoyl]-3H-1-benzazepine-4-carbonyl]-propyl-amino]propyl]carbamate], for which the EC50 is greater than 9 µM on human TLR7 and 0.862 µM at human TLR8.

For the compound `CCCN(CCC(F)(F)F)C(=O)C1=Cc2ccc(C(=O)Nc3ccccc3)cc2N=C(N)C1` [8AmBza-14], the EC50 on human TLR7 is greater than 9 µM; on human TLR8, 0.245 µM.
